Data published in ChEMBL document CHEMBL6134916, “Novel Substituted Cyclic Compounds as SLC6A19 Inhibitors for Treating Phenylketonuria and Other Amino Acidurias” (ACS Med Chem Lett, 2025).

target: T1, Sodium-dependent neutral amino acid transporter B(0)AT1 (Homo sapiens, UniProt Q695T7); assay: Inhibition of human SLC6A19 expressed in MDCK cells co-expressing human TMEM27 using 13C6/15N-L-Isoleucine as substrate preincubated for 20 mins followed by substrate addition and measured after 20 mins by stable isotope uptake assay; type: cell-based
T1 sequence (Q695T7 whole entry): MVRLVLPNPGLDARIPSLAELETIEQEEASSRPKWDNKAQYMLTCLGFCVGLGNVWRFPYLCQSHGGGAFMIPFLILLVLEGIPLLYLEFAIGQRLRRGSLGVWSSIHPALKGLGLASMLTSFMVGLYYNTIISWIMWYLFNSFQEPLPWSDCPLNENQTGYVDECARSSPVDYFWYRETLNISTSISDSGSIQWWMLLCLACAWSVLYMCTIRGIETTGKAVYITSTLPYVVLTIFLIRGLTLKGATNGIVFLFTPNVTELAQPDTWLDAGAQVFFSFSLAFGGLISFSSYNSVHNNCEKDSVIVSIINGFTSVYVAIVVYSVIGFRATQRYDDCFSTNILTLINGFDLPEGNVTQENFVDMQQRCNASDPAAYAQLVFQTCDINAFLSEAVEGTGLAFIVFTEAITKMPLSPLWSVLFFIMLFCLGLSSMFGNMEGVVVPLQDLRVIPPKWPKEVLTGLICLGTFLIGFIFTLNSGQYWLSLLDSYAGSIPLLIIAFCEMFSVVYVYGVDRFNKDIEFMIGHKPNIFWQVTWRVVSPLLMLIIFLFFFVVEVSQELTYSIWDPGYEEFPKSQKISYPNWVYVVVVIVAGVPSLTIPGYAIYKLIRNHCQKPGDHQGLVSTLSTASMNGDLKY

SMILES | IC50 [nM]
CNC(=O)c1cc2c(-c3ccc(C(=O)NCc4cccc(C(F)(F)F)c4)cc3Cl)cccc2[nH]1 | 3
CNC(=O)c1cc2c(-c3ccc(C(=O)NCc4cccc(C(F)(F)F)c4)cc3)cc(C(C)C)cc2[nH]1 | 5
CNC(=O)c1cc2c(-c3ccc(C(=O)NCc4cccc(C(F)(F)F)c4)cc3)c(OC)ccc2[nH]1 | 5
CNC(=O)c1cc2c(-c3ccc(C(=O)NCc4cccc(C(F)(F)F)c4)cc3)ccc(F)c2[nH]1 | 4
CNC(=O)c1cc2c(-c3ccc(C(=O)NCc4cccc(C(F)(F)F)c4)cc3)cc(C)c(F)c2[nH]1 | 5
CNC(=O)c1cc2c(-c3ccc(C(=O)NCc4cc(C(F)(F)F)ccc4F)cc3F)cccc2[nH]1 | 4
